For this test, the system named is M. tuberculosis H37Rv growth inhibition with meropenem. The test can be described thus: dose response, H37Rv, with and without meropenem (AID 434987).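 Also: growth over 7 days at 37 °C before Alamar Blue read on day 9.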
Setting [1] is: M. tuberculosis H37Rv growth inhibition, measured here: IC50 without meropenem.
[2] abbreviates: M. tuberculosis H37Rv growth inhibition, measured here: IC90 without meropenem.
Where [3] appears, read: measured here: IC90 with meropenem.

The text below walks through data of PubChem BioAssay AID434987 (Southern Research Specialized Biocontainment Screening …, 2010).

Active and inactive are the calls of the source. No rule for the calls is given here. Where only a bound is given, the exact number is not on record here.

A word on the IC50: it is the concentration that inhibits the measured activity by half. A word on the IC90: it is the concentration at which the effect reaches the 90% level.

For the compound `CC(=O)n1cc([C@@H]2C=C(C(=O)N3CCN(Cc4ccc5c(c4)OCO5)CC3)O[C@H](OCCCCO)C2)c2ccccc21`, the IC50 is > 100 µM (inactive). Moreover, the 50% inhibitory concentration (IC50) under setting [1] came to 84 µM. For the same compound, the IC90 under setting [2] is above 100 µM. Further, under setting [3], the concentration for an effect of 90% (IC90) was above 100 µM.

For `O=C(CCSc1ccccc1)Nc1nc2c(s1)CCCC2`, the IC50 is > 100 µM (inactive). The same compound came in with a half-maximal inhibitory concentration (IC50) under setting [1] above 100 µM. Under setting [2], this compound had a concentration for an effect of 90% (IC90) above 100 µM. Further, under setting [3], the 90% effect concentration (IC90) is above 100 µM.

With `CC1CCCC(NC(=O)COC(=O)c2cccc(NS(=O)(=O)/C=C/c3ccccc3)c2)C1C` (stereo not drawn), the IC50 is > 100 µM (inactive). This compound also returned a half-inhibitory concentration (IC50) under setting [1] above 100 µM. Also, the IC90 under setting [2] is above 100 µM. Under setting [3], this compound came in with an IC90 above 100 µM.

Consider `CC12CCC(C/C1=N\N=C1\NC(=O)/C(=C\c3cccc(Br)c3)S1)C2(C)C` (stereo not drawn), for which the 50% inhibitory concentration (IC50) was 9.74 µM. In addition, under setting [1], the IC50 is 26.6 µM. The compound also showed an IC90 under setting [2] of 37.3 µM. This compound also had an IC90 under setting [3] of 37.7 µM.

In the case of `NC(=S)N/N=C/c1ccc(/C=N/NC(N)=S)cc1`, the half-inhibitory concentration (IC50) is 2.5 µM. Under setting [1], this compound yielded an IC50 above 100 µM. Also, the IC90 under setting [2] is above 100 µM. Besides, under setting [3], the IC90 was above 100 µM.

With `CCCn1nnnc1NC(=O)COc1ccc(Cl)cc1C`, the IC50 was 12.4 µM (inactive). This compound returned an IC50 under setting [1] of 24.3 µM. The same compound registered an IC90 under setting [2] of 28.6 µM. Under setting [3], this compound registered an IC90 of 42.9 µM.

As for `CC(C)(C)OC(=O)N1CCC(NC(=O)c2[nH]cnc2C(=O)Nc2ccccc2)CC1`, the IC50 was > 100 µM (inactive). Also, the 50% inhibitory concentration (IC50) under setting [1] is above 100 µM. For the same compound, the concentration for an effect of 90% (IC90) under setting [2] was above 100 µM. Also, the 90% effect concentration (IC90) under setting [3] was above 100 µM.

In the case of `O=C(Cn1c(=O)n(CCCC(=O)NC2CCCC2)c(=O)c2ccccc21)NCCC1=CCCCC1`, the IC50 is > 100 µM (inactive). Also, the IC50 under setting [1] was above 100 µM. Also, the concentration for an effect of 90% (IC90) under setting [2] is above 100 µM. The compound further returned an IC90 under setting [3] above 100 µM.

Turning to `Cc1cc(C)n(-c2nc(-c3ccc(Cl)c(Cl)c3)cs2)n1`, the 50% inhibitory concentration (IC50) was 14.5 µM. The same compound yielded an IC50 under setting [1] above 100 µM. The compound also registered a concentration for an effect of 90% (IC90) under setting [2] above 100 µM. Under setting [3], this compound showed an IC90 above 100 µM.

Take `CN1c2ccccc2C(=O)NC1c1ccc([N+](=O)[O-])s1` (stereo not drawn): the IC50 was 3.09 µM. Besides, the half-inhibitory concentration (IC50) under setting [1] came to 20.7 µM. This compound came in with a 90% effect concentration (IC90) under setting [2] of 38.4 µM. In addition, the concentration for an effect of 90% (IC90) under setting [3] is 33.3 µM.

For `CC#CC[N+](C)(C)CCCCCCCCCCCC`, the IC50 was 49 µM (inactive). For the same compound, the half-inhibitory concentration (IC50) under setting [1] is 72.8 µM. In addition, the concentration for an effect of 90% (IC90) under setting [2] is above 100 µM. Further, the IC90 under setting [3] was above 100 µM.

Turning to `O=S(=O)(Nc1cccc(-c2ccc(N3CCCCCC3)nn2)c1)c1ccccc1Cl`, the IC50 was 16 µM. Under setting [1], the 50% inhibitory concentration (IC50) was above 100 µM. Further, the concentration for an effect of 90% (IC90) under setting [2] is above 100 µM. This compound gave an IC90 under setting [3] above 25 µM.

Regarding `N#Cc1c(-c2cccs2)cc(-c2ccccn2)nc1N`, the concentration for half-maximal inhibition (IC50) is 6.92 µM. In addition, the half-inhibitory concentration (IC50) under setting [1] is above 100 µM. The compound further had an IC90 under setting [2] above 100 µM. The concentration for an effect of 90% (IC90) under setting [3] was above 100 µM.

With `CCOc1cc(C(=O)N2CCC(CC3CC(c4ccccc4)=NO3)(C(=O)NCc3ccc(OC)cc3)CC2)cc(OCC)c1OCC` (stereo not drawn), the IC50 was > 100 µM (inactive). Under setting [1], this compound returned a concentration for half-maximal inhibition (IC50) above 100 µM. The compound also yielded an IC90 under setting [2] above 100 µM. Further, under setting [3], the IC90 is above 100 µM.

As to `Cc1ccc(N=Cc2c(O)ccc3ccccc23)cc1F`, the IC50 was > 100 µM (inactive). Under setting [1], this compound showed an IC50 above 100 µM. The compound also gave a 90% effect concentration (IC90) under setting [2] above 100 µM. For the same compound, the IC90 under setting [3] is above 100 µM.

For `CCCN1C(=O)c2ccc(C(=O)Nc3cc(C)on3)cc2C1=O`, the IC50 was > 100 µM (inactive). Under setting [1], this compound displayed an IC50 above 100 µM. The 90% effect concentration (IC90) under setting [2] is above 100 µM. Under setting [3], this compound gave an IC90 above 100 µM.

Regarding `CCc1ccc(NC(=O)C2C3/C=C\CCCCC32)cc1` (stereo not drawn), the IC50 is 72 µM (inactive). Moreover, the concentration for half-maximal inhibition (IC50) under setting [1] is above 100 µM. For the same compound, the IC90 under setting [2] is above 100 µM. Further, the IC90 under setting [3] was above 100 µM.

For `Nc1ccc(N=Nc2ccccc2O)c(N)c1`, the IC50 is 6.58 µM. The same compound yielded an IC50 under setting [1] of 33.8 µM. The concentration for an effect of 90% (IC90) under setting [2] is above 100 µM. The compound also showed an IC90 under setting [3] of 34 µM.

Turning to `O=C(NN1C(=O)c2cc(Br)ccc2NC1c1ccccc1Cl)c1ccncc1` (stereo not drawn), the IC50 was 12.5 µM. Further, the IC50 under setting [1] stood at 35 µM. This compound also came in with a 90% effect concentration (IC90) under setting [2] of 50.7 µM. This compound returned an IC90 under setting [3] of 13.7 µM.

Take `CN(C)CC[C@@H](c1ccc(Br)cc1)c1ccccn1`: the IC50 was > 100 µM (inactive). Moreover, the IC50 under setting [1] is above 100 µM. This compound also returned an IC90 under setting [2] above 100 µM. The compound further showed a 90% effect concentration (IC90) under setting [3] above 100 µM.

Turning to `CCOc1ccc(NC(=S)Nc2cccnc2)cc1`, the IC50 is 89.5 µM (inactive). Further, under setting [1], the concentration for half-maximal inhibition (IC50) is above 100 µM. The same compound returned a 90% effect concentration (IC90) under setting [2] above 100 µM. The same compound came in with a concentration for an effect of 90% (IC90) under setting [3] above 100 µM.

On to `Cc1ccc(NC(=O)O/N=C/c2c(C)nn(C(C)(C)C)c2C)cc1Cl`, for which the IC50 is > 100 µM (inactive). Besides, the IC50 under setting [1] was above 100 µM. The same compound registered a 90% effect concentration (IC90) under setting [2] above 100 µM. For the same compound, the 90% effect concentration (IC90) under setting [3] is above 100 µM.
